The values that follow come from publication PMC8743659, “C1632 suppresses the migration and proliferation of non‐small‐cell lung cancer cells involving LIN28 and FGFR1 pathway” (Journal of Cellular and Molecular Medicine, 2021).

The subject of data set [1] is A549R cells. Nature of the data set: SA-β gal staining assay. The format is cell-based, human. As to conditions: A549R, 15, 30 and 60 mg/L, 5 days. The method, then: (§1) The assay was set up following the β‐galactosidase (SA‐β gal) staining Kit, which was obtained from Sigma. In brief, cells were washed once with PBS and fixed with stationary liquid provided in the kit at room temperature for 15 min. Next, the cells were incubated overnight at 37°C in dark with the 1 ml working solution containing 0.05 mg/ml 5‐bromo‐4‐chloro‐3‐indolyl‐b‐d‐galactopyranoside (X‐gal) and observed under a normal light microscope (Nikon).

For data set [2], the system named is A549 cells. The data set is described as follows: SA-β gal staining assay. The format is cell-based, human. As to conditions: A549, 15, 30 and 60 mg/L, 5 days. The method, then:
as §1

Data set [3] concerns A549R cells. Nature of the data set: Transwell migration and invasion assay. The format is cell-based, human. The settings on record: pretreated 5 days, 24 h. As to the method: (§2) Transwell assay was carried out according to the manufacturer's instructions provided by Transwell Kit (Corning Costar). Briefly, cells were pretreated with indicated concentrations of C1632 for 5 days, then harvested and re‐seeded into insert (transwell permeable support) containing 100 μl serum‐free DMEM medium. The insert was placed into 24‐well plate containing 600 μl of DMEM medium extra added with 10% FBS. 24 h later, cells on the upper surface of the insert were removed with cotton‐tipped swabs. And cells on backside surface of the insert were fixed with 10% formalin, then stained with crystal violet. The insert was washed three times with ddH2O before it is subjected to Nikon Ti microscope observation. Additionally, these inserts were dissolved in 500 μl acetic acid (33%) separately, and the absorbance at 560 nm was detected by the spectrophotometer (DTX880, Beckman Coulter).

Data set [4] relates to A549 cells. The data set is described as follows: Transwell migration and invasion assay. The format is cell-based, human. As to conditions: A549, pretreated 5 days, 24 h. As to the method:
as §2

In the next data set the test system is A549R xenograft tumours. Nature of the data set: NSCLC A549R xenograft model. The format is in vivo, mice. As to the method:
A total of 1.0 × 10^6 A549R cells were inoculated subcutaneously into the dorsal flank of the nude mice in 100 µl phosphate‐buffered saline (PBS). Mice were randomly divided into control and C1632 treatment groups (n = 4 per group). Mice were i.p. injected every other day for 18 days (A549R) at a dose of 30 mg/kg in 100 µl PBS per mouse. The tumours were resected, and their size was estimated from the measurements of weight or the longest diameter across the tumour and the corresponding perpendicular diameter.

The subject of data set [5] is A549R cells. Nature of the data set: Annexin V/PI apoptosis assay. The format is cell-based, human. As to conditions: A549R, 15, 30 or 60 mg/L, 5 days. The method, then: (§3) Cells were seeded in 6 cm^2 dish with a density of 3.0 × 10^5 cells per dish and treated with C1632 with final concentration of 15, 30, and 60 mg/L or 0.01% DMSO for 5 days. Then the assay was performed following the protocol provided by the Annexin V/PI Apoptosis Kit (Sigma) and was assessed on a flow cytometer (BD FACSCalibur, BD Biosciences).

The test system of data set [6] is A549 cells. Nature of the data set: Annexin V/PI apoptosis assay. The format is cell-based, human. As to conditions: A549, 15, 30 or 60 mg/L, 5 days. As to the method:
as §3

SMILES strings stand for the structures. Entries after “also recorded” stand apart in the source; their conditions may differ.

For `CC(=O)N(C)c1cccc(-c2ccc3nnc(C)n3n2)c1` [C1632], the results for the “senescence (β-gal positive cells)” value with A549R cells [1] and in the data set with A549 cells [2] were “induce the senescence” and “did not induce the senescence; also recorded: did not significantly increase”, respectively. In addition, the “Transwell migration compared with untreated cells” value in the data set on A549R cells [3] and in the data set on A549 cells [4] was “decreased migration” each time. The “body weight of mice” value in the data set on A549R xenograft tumours (30 mg/kg every 2 days for 18 days) is “did not affect”. The “growth of xenograft tumour cells (tumour volume over treatment period)” value in the data set on A549R xenograft tumours (30 mg/kg every 2 days for 18 days, time-dependent) is given as “suppressed”. In addition, in the data set on A549R xenograft tumours (30 mg/kg every 2 days, after 18 days, n = 4, untreated 2.35 ± 0.43 g, p < 0.05), the “tumour size (weight), mean ± SD” value came to 1.36 ± 0.27 g. Also, the apoptosis result with A549R cells [5] is reported as “limited effects; also recorded: did not significantly increase”; in the data set on A549 cells [6], “induces apoptosis”.
